According to patent US8062995B2, “Dioxazine-substituted arylamides” (Bayer CropScience AG, priority 2005, dated 2011):

Legend:
[1] = tested on: green peach aphid (Myzus persicae); test: Myzus test; oral; type: in vivo
Method: Myzus Test; Oral Solvent: 80 parts by weight of acetone To produce a suitable preparation of active compound, 1 part by weight of active compound is mixed with the stated amounts of solvent and the concentrate is diluted with water to the desired concentration. Vessels are populated with all stages of the green peach aphid (Myzus persicae) which are treated by sucking the active compound preparation of the desired concentration. After the desired period of time, the activity in % is determined. 100% means that all aphids have been killed; 0% means that none of the aphids have been killed.

[2] = tested on: caterpillars of the cotton bollworm (Heliothis armigera); test: Heliothis armigera test (leaf dip); type: in vivo
Outline: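 Compound was formulated in dimethylformamide with alkylaryl polyglycol ether emulsifier and diluted in emulsifier-containing water. Soya bean leaves were dipped in the preparation and populated with Heliothis armigera caterpillars while still moist. Kill (%) was scored after the desired period.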

[3] = tested on: larvae of the mustard beetle (Phaedon cochleariae); test: Phaedon test (sprayed Chinese cabbage discs); type: in vivo; settings: for Kill rate after 7d in %: 100 g/ha
Outline: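 Compound formulated in acetone/DMF with alkylaryl polyglycol ether emulsifier, diluted in emulsifier-containing water and sprayed onto Chinese cabbage (Brassica pekinensis) leaf discs. After drying, discs infested with Phaedon cochleariae larvae; % kill scored after set time (100% = all larvae dead, 0% = none).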

[4] = tested on: caterpillars of the army worm (Spodoptera exigua); test: Spodoptera exigua test (leaf dip); type: in vivo
Outline: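 Compound in DMF with alkylaryl polyglycol ether emulsifier, diluted in water to test concentration; cabbage leaves dipped and infested with Spodoptera exigua caterpillars while still moist. Kill (%) scored after a set period, 100% meaning all caterpillars dead.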

[5] = tested on: green peach aphid (Myzus persicae); test: Myzus persicae test; systemic treatment; type: in vivo; settings: for Kill rate after 6d in %: 20 ppm, systemic treatment
Method: Myzus persicae Test; Systemic Treatment Solvent: 7 parts by weight of dimethylformamide Emulsifier: 2 parts by weight of alkylaryl polyglycol ether To produce a suitable preparation of active compound, 1 part by weight of active compound is mixed with the stated amounts of solvent and emulsifier and the concentrate is diluted with water to the desired concentration. The active compound preparation is mixed with water. The stated concentration refers to the amount of active compound per volume unit of water (mg/l=ppm). The treated water is filled into vessels with a pea plant (Pisum sativum) which is then infected with the green peach aphid (Myzus persicae). After the desired period of time, the kill in % is determined. 100% means that all aphids have been killed; 0% means that none of the aphids have been killed.

[6] = tested on: caterpillars of the army worm (Spodoptera frugiperda); test: Spodoptera frugiperda test (SPODFR spray treatment); type: in vivo; settings: for Kill rate after 7d in %: 100 g/ha, spray treatment
Outline: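 Compound formulated in acetone/DMF with alkylaryl polyglycol ether emulsifier, diluted in emulsifier-containing water and sprayed on maize leaf discs; after drying, discs infested with Spodoptera frugiperda caterpillars. Mortality (%) scored after a set period, 100% meaning all caterpillars killed.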

[7] = logP determination by HPLC (reversed-phase C18), EEC Directive 79/831 Annex V.A8; type: physicochemical; settings: HPLC reversed-phase C18, 43° C., acidic range pH 2.7
[8] = tested on: caterpillars of the diamondback moth (Plutella xylostella); test: Plutella test (leaf dip); type: in vivo
Method: (§1) Plutella Test Solvent: 7 parts by weight of dimethylformamide Emulsifier: 2 parts by weight of alkylaryl polyglycol ether To produce a suitable preparation of active compound, 1 part by weight of active compound is mixed with the stated amounts of solvent and emulsifier and the concentrate is diluted with emulsifier-containing water to the desired concentration. Cabbages leaves (Brassica oleracea) are treated by being dipped into the active compound preparation of the desired concentration and populated with caterpillars of the diamondback moth (Plutella xylostella) while the leaves are still moist. After the desired period of time, the kill in % is determined. 100% means that all caterpillars have been killed; 0% means that none of the caterpillars have been killed.

[9] = tested on: green peach aphid (Myzus persicae); test: Myzus test (MYZUPE spray treatment); type: in vivo; settings: for Kill rate after 5d in %: 100 g/ha, spray treatment
Method: Myzus Test (MYZUPE Spray Treatment) Solvents: 78 parts by weight of acetone • • 1.5 parts by weight of dimethylformamide Emulsifier: 0.5 part by weight of alkylaryl polyglycol ether To produce a suitable preparation of active compound, 1 part by weight of active compound is mixed with the stated amounts of solvents and emulsifier and the concentrate is diluted with emulsifier-containing water to the desired concentration. Discs of Chinese cabbage (Brassica pekinensis), which are infested by all stages of the green peach aphid (Myzus persicae) are sprayed with an active compound preparation of the desired concentration. After the desired period of time, the activity in % is determined. 100% means that all aphids have been killed; 0% means that none of the aphids have been killed.

[10] = tested on: Spodoptera frugiperda larvae; test: Spodoptera frugiperda test (treatment by watering); type: in vivo; settings: 20 ppm; 14 d; treatment by watering
Outline: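 Compound formulated in dimethylformamide with alkylaryl polyglycol ether emulsifier and diluted with water to the desired concentration. Maize plants are watered with the preparation, then infested with Spodoptera frugiperda larvae. After the set period, % larval kill is scored (100% = all killed, 0% = none).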

[11] = tested on: Spodoptera exigua, resistant strain; test: Spodoptera exigua test; resistant strain; type: in vivo; settings: for Kill rate after 7d in %: resistant strain
Outline: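 Cabbage leaves dipped in compound preparation (DMF solvent, alkylaryl polyglycol ether emulsifier, diluted in emulsifier-containing water) and infested with caterpillars while still moist. After the set period, kill scored in %: 100% all caterpillars dead, 0% none dead.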

[12] = tested on: cotton aphid (Aphis gossypii); test: Aphis gossypii test (leaf dip); type: in vivo; settings: for Kill rate after 6d in %: 100 ppm
Method: as §1, with “Aphis gossypii” for “Plutella”, “Cotton” for “Cabbages”, “(Gossypium hirsutum) which are heavily infested by the cotton aphid (Aphis gossypii)” for “(Brassica oleracea)”, “concentration.” for “concentration and populated with caterpillars of the diamondback moth (Plutella xylostella) while the leaves are still moist.”, “aphids” for “caterpillars”

In the case of `Cc1cccc(C2=NOCCN2)c1NC(=O)c1cc(C(F)(F)F)nn1-c1ncccc1Cl` [Example I-1-16], the “activity in the Myzus test, oral (in words)” value [1] is reported as “good activity”, the “Kill rate after 5d in %” value ([1]; 100 ppm, 5 d, oral) is reported as 100% and the “activity in the Heliothis armigera test (in words)” value [2] is reported as “good activity”. The “Kill rate after 7d in %” value ([2]; 20 ppm) was 100%, the “activity in the Phaedon test (in words)” value [3] was “good activity” and the “Kill rate after 7d in %” value [3] was 100%. The “activity in the Spodoptera exigua test (in words)” value [4] was “good activity”, the “Kill rate after 7d in %” value ([4]; 20 ppm) was 100% and the “activity in the Myzus persicae test, systemic treatment (in words)” value (“activity in the Myzus persicae test” for short) [5] was “good activity”. For the same molecule, the “Kill rate after 6d in %” value [5] was 100%, the “activity in the Spodoptera frugiperda test, spray treatment (in words)” value [6] was “good activity” and the “Kill rate after 7d in %” value [6] was 100%. The logP [7] was 1.98, the “activity in the Plutella test (in words)” value [8] was “good activity” and the “Kill rate after 7d in %” value ([8]; 100 ppm) was 100%. For the same molecule, the “activity in the Myzus test, spray treatment (in words)” value [9] was “good activity” and the “Kill rate after 5d in %” value [9] was 100%.

In the case of `Cc1cc(Cl)cc(C2=NOCCN2)c1NC(=O)c1cc(C(F)(F)F)nn1-c1ncccc1Cl` [Example I-1-18], the “Kill rate after 14d in %” value [10] is reported as 95%, the “activity in the Heliothis armigera test (in words)” value [2] is reported as “good activity” and the “Kill rate after 7d in %” value ([2]; 20 ppm) is reported as 100%. For the same molecule, the “activity in the Phaedon test (in words)” value [3] was “good activity”, the “Kill rate after 7d in %” value [3] was 100% and the “activity in the Spodoptera exigua test (in words)” value [4] was “good activity”. The “Kill rate after 7d in %” value ([4]; 100 ppm) was 100%, the “activity in the Spodoptera exigua test, resistant strain (in words)” value [11] was “good activity” and the “Kill rate after 7d in %” value ([11]; 100 ppm) was 100%. For the same molecule, the “activity in the Myzus persicae test” value [5] was “good activity”, the “Kill rate after 6d in %” value [5] was 95% and the “activity in the Spodoptera frugiperda test, spray treatment (in words)” value [6] was “good activity”. The “Kill rate after 7d in %” value [6] was 100%, the logP [7] was 2.70 and the “activity in the Plutella test (in words)” value [8] was “good activity”. The “Kill rate after 7d in %” value ([8]; 20 ppm) was 100%, the “activity in the Myzus test, spray treatment (in words)” value [9] was “good activity” and the “Kill rate after 5d in %” value [9] was 100%.

For `Cc1cc(Cl)cc(C2=NOCCN2)c1NC(=O)c1cc(Br)nn1-c1ncccc1Cl` [Example I-1-19], the “Kill rate after 14d in %” value [10] was 95%, the “activity in the Heliothis armigera test (in words)” value [2] was “good activity” and the “Kill rate after 7d in %” value ([2]; 4 ppm) was 100%. The “activity in the Phaedon test (in words)” value [3] was “good activity”, the “Kill rate after 7d in %” value [3] was 100% and the “activity in the Spodoptera exigua test (in words)” value [4] was “good activity”. For the same molecule, the “Kill rate after 7d in %” value ([4]; 4 ppm) was 80%, the “activity in the Spodoptera exigua test, resistant strain (in words)” value [11] was “good activity” and the “Kill rate after 7d in %” value ([11]; 20 ppm) was 100%. For the same molecule, the “activity in the Myzus persicae test” value [5] was “good activity”, the “Kill rate after 6d in %” value [5] was 90% and the “activity in the Aphis gossypii test (in words)” value [12] was “good activity”. For the same molecule, the “Kill rate after 6d in %” value [12] was 80%, the “activity in the Spodoptera frugiperda test, spray treatment (in words)” value [6] was “good activity” and the “Kill rate after 7d in %” value [6] was 100%. The logP [7] was 2.25, the “activity in the Plutella test (in words)” value [8] was “good activity” and the “Kill rate after 7d in %” value ([8]; 0.8 ppm) was 100%. For the same molecule, the “activity in the Myzus test, spray treatment (in words)” value [9] was “good activity” and the “Kill rate after 5d in %” value [9] was 90%.

With `Cc1cc(Cl)cc(C2=NOCCN2)c1NC(=O)c1cc(Cl)nn1-c1ncccc1Cl` [Example I-1-20] the “Kill rate after 14d in %” value [10] was 95%, the “activity in the Heliothis armigera test (in words)” value [2] was “good activity” and the “Kill rate after 7d in %” value ([2]; 4 ppm) was 100%. The “activity in the Phaedon test (in words)” value [3] was “good activity”, the “Kill rate after 7d in %” value [3] was 100% and the “activity in the Spodoptera exigua test (in words)” value [4] was “good activity”. For the same molecule, the “Kill rate after 7d in %” value ([4]; 4 ppm) was 100%, the “activity in the Aphis gossypii test (in words)” value [12] was “good activity” and the “Kill rate after 6d in %” value [12] was 80%. For the same molecule, the “activity in the Spodoptera frugiperda test, spray treatment (in words)” value [6] was “good activity”, the “Kill rate after 7d in %” value [6] was 100% and the logP [7] was 2.25. For the same molecule, the “activity in the Plutella test (in words)” value [8] was “good activity”, the “Kill rate after 7d in %” value ([8]; 4 ppm) was 100% and the “activity in the Myzus test, spray treatment (in words)” value [9] was “good activity”. The “Kill rate after 5d in %” value [9] was 100%.
